Tests used:
[1] = target: Polymerase acidic protein (Influenza A virus (A/Puerto Rico/8/1934(H1N1))) (UniProt P03433); test: Inhibition of Influenza A virus N-terminal Polymerase acidic protein endonuclease activity in HEK293T cells transfected with IAV RNA polymerase complex and firefly/renilla luciferase reporter at 10 uM by […] Dual-Glo luciferase assay relative to control; assay type: cell-based
[2] = target: Polymerase acidic protein (Influenza A virus (A/Puerto Rico/8/1934(H1N1)), UniProt P03433); test: Inhibition of Influenza A virus N-terminal Polymerase acidic protein endonuclease activity in HEK293T cells transfected with IAV RNA polymerase complex and firefly/renilla luciferase reporter by […] Dual-Glo luciferase assay; assay type: cell-based
Influenza A virus [3] = test: Antiviral activity against Influenza A virus A/WSN/33, H1N1 infected in MDCK cells assessed as decrease in viral replication incubated for 72 hrs; assay type: functional, organism-based; details: A/WSN/33, H1N1, MDCK
[4] = Cytotoxicity against MDCK cells assessed as decrease in survival rate; assay type: toxicity, cell-based, Canis lupus familiaris; details: dog
Influenza A virus [5] = test: Antiviral activity against Influenza A virus A/WSN/33, H1N1 infected in MDCK cells assessed as suppression of viral titer at 3 uM incubated for 72 hrs relative to control; assay type: functional

| SMILES | inhibition [1] | IC50 [2] | EC50 (Influenza A virus [3]) | CC50 [4] | Activity (Influenza A virus [5]) |
| --- | --- | --- | --- | --- | --- |
| O=C1N[C@H](c2ccccc2)CN(C2c3ccccc3CCc3ccccc32)n2ccc(=O)c(O)c21 | 31.6% |  |  |  |  |
| CC(C)C[C@@H]1CN(C2c3ccccc3CCc3ccccc32)n2ccc(=O)c(O)c2C(=O)N1 | 56.4% |  |  |  |  |
| O=C1N[C@@H](Cc2ccccc2)CN(C2c3ccccc3CCc3ccccc32)n2ccc(=O)c(O)c21 | 49% |  |  |  |  |
| O=C1c2c(O)c(=O)ccn2N(C2c3ccccc3C=Cc3ccccc32)C[C@H]2CCCN12 | 91.9% | 437 nM | 292 nM | 62900 nM | 82.2% |
| O=C1c2c(O)c(=O)ccn2N([C@@H]2c3ccccc3SCc3c2ccc(F)c3F)C[C@H]2CCCN12 |  | 45 nM | 134 nM | 15400 nM |  |
| O=C1c2c(O)c(=O)ccn2N([C@@H]2c3ccccc3SCc3c2ccc(F)c3F)[C@@H]2COCCN12 [BALOXAVIR] | 99% | 1 nM | 1 nM | 28800 nM |  |
| O=C1NC2(CCCC2)CN(C2c3ccccc3CCc3ccccc32)n2ccc(=O)c(O)c21 | 9.2% |  |  |  |  |
| O=C1c2c(O)c(=O)ccn2N([C@H]2c3ccccc3SCc3c2ccc(F)c3F)C[C@H]2CCCN12 |  | 231 nM | 2880 nM | 98500 nM |  |
| O=C1c2c(O)c(=O)ccn2N(C(c2ccc(F)cc2)c2ccc(F)cc2)C[C@H]2CCCN12 | 50.1% |  |  |  |  |
| O=C1c2c(O)c(=O)ccn2N(C2c3ccccc3CCc3ccccc32)C[C@@H]2CCCCN12 | 36.5% |  |  |  |  |
| CC(C)[C@H]1CN(C2c3ccccc3CCc3ccccc32)n2ccc(=O)c(O)c2C(=O)N1 | 31% |  |  |  |  |
| O=C1c2c(O)c(=O)ccn2N(C2c3ccccc3CCc3ccccc32)C[C@H]2CCCCN12 | 66.9% |  |  |  |  |
| CSCC[C@@H]1CN(C2c3ccccc3CCc3ccccc32)n2ccc(=O)c(O)c2C(=O)N1 | 64.2% |  |  |  |  |
| O=C1N[C@H](Cc2ccccc2)CN(C2c3ccccc3CCc3ccccc32)n2ccc(=O)c(O)c21 | 49.5% |  |  |  |  |
| O=C1c2c(O)c(=O)ccn2N(C2c3ccccc3SCc3c2ccc(F)c3F)C[C@H]2CCCN12 (stereo not given in full) | 99.6% | 82 nM | 421 nM | 29600 nM | 99.9% |
| O=C1c2c(O)c(=O)ccn2N(C2c3ccccc3CCc3ccccc32)C[C@H]2CCCN12 | 81.1% | 2870 nM | 724 nM | 34300 nM |  |
| O=C1c2c(O)c(=O)ccn2N(C(c2ccccc2)c2ccccc2)C[C@H]2CCCN12 | 48.2% |  |  |  |  |
| CSCC[C@H]1CN(C2c3ccccc3CCc3ccccc32)n2ccc(=O)c(O)c2C(=O)N1 | 30.5% |  |  |  |  |
| C[C@@H]1CN(C2c3ccccc3CCc3ccccc32)n2ccc(=O)c(O)c2C(=O)N1 | 75.3% |  |  |  |  |
| C[C@H]1CN(C2c3ccccc3CCc3ccccc32)n2ccc(=O)c(O)c2C(=O)N1 | 37.6% |  |  |  |  |
| CC(C)C[C@H]1CN(C2c3ccccc3CCc3ccccc32)n2ccc(=O)c(O)c2C(=O)N1 | 22.4% |  |  |  |  |
| O=C1c2c(O)c(=O)ccn2N(C2c3ccccc3CCc3ccccc32)C[C@@H]2CCCN12 | 68.2% |  |  |  |  |

From ChEMBL document CHEMBL5608178, “Design and synthesis of 7-membered lactam fused hydroxypyridinones as potent metal binding pharmacophores (MBPs) for inhibiting influenza virus PAN endonuclease” (Eur J Med Chem, 2024)
